Measurements: patent US20230372364A1, “METHOD OF TREATING GABA MEDIATED DISORDERS” (Eliem Therapeutics (UK) Ltd, priority 2020, published 2023)

How the values were obtained:
rodent models = assay: Tolerability in rodent models; assay type: in vivo; conditions: at efficacious doses
Source text: The compound of Formula (I) is also believed to show antiepileptic activity in maximal electroshock and pentylenetetrazol seizure models, antidepressant properties in the forced swim test, and anxiolytic properties in the elevated plus maze test.

[1] = In vitro genetic toxicology studies; conditions: two in vitro studies
kappa opioid receptor = kappa opioid receptor (Homo sapiens, UniProt P41145); assay: Activity at the kappa opioid receptor; conditions: previously shown
Sequence of kappa opioid receptor (P41145 whole entry): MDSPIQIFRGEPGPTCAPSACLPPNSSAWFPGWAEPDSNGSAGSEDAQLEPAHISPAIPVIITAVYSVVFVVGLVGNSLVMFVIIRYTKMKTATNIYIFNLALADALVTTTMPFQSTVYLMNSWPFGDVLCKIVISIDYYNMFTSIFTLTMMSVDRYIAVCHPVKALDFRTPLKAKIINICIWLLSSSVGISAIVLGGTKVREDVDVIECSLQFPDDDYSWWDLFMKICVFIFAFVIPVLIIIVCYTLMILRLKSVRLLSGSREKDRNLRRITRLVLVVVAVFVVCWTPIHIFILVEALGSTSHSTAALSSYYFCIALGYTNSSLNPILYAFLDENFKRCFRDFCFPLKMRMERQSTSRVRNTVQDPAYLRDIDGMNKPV
Source text: (§1) The compound of Formula (I) is believed to have binding affinity at the GABA-gated Cl-channel, the kappa opioid receptor, the 5-HT2A receptor, and the androgen receptor. The compound of Formula (I) has previously shown activity at all 18 GABAA receptor channels and the kappa opioid receptor. The compound of Formula (I) had previously shown no activity at the 5-HT2A receptor. Activity at the androgen receptor is has not yet been well studied.

[2] = 60 mg once daily for seven days, pharmacokinetics in humans (MAD); conditions: human
[3] = Further pharmacokinetic analysis of Phase 1 human dosing exposure studies; assay type: in vivo
human subjects [4] = assay: Phase 1 study of safety, tolerability and pharmacokinetics in healthy volunteers (Example 1); assay type: in vivo; conditions: Phase 1 study participants
Source text: The study is a first in-human study of ATN-10155 is designed to assess the safety, tolerability, and pharmacokinetics of ATN-10155 following administration of two phases: a single ascending dose phase and multiple ascending dose phase. The study is a randomized, double-blind study with participants in each cohort receiving active drug or matching placebo. The study evaluates the safety, tolerability, and pharmacokinetics of ATN-10155 following the single and multiple dose phases in healthy volunteers. […]
Single Ascending Dose—the Single Ascending Dose portion comprises five or more cohorts with eight participants in each cohort, 6 actively receiving ATN-10155 and 2 receiving a placebo. […] Sentinel dosing is not employed once the maximum tolerated dose is determined or if an intermediate cohort is added that that is lower than the dose of the previous cohort. […]
Safety and tolerability—A physical and neurological exam is done as part of the eligibility evaluation at screening. […] Systolic blood pressure, diastolic blood pressure, pulse, and peripheral arterial oxygen saturation (pulse oximetry) is recorded prior to every PK blood sample (including pre-dose) in the single ascending dose portion. […] If a post-menopausal female, follicle stimulating hormone levels is measured at screening. […]

[5] = test system: all 18 GABAA receptor channels; assay: Activity at GABAA receptor channels; conditions: previously shown
Source text: as §1

rats = assay: Sleep states by electroencephalogram (EEG) in rats; assay type: in vivo, rat
Procedure: The effect of CV-10155 on various sleep states was analyzed in rats. Rats were given various doses of CV-10155, and sleep states were analyzed by electroencephalogram (EEG).

human subjects [6] = assay: Single ascending oral dose safety and tolerability in humans; assay type: in vivo
[7] = Pharmacokinetic parameters in preclinical rodent studies; assay type: in vivo; design: Oral BA / ½ life: unit not given here
Procedure: The pharmacokinetic parameters of CV-10155 in preclinical studies on rodent models of seizure, anxiety, depression and EEG biomarker were analyzed.

[8] = molecular target: α4β3δ Extra synaptic receptors (GABAA) (Homo sapiens, UniProt P28472+P48169); assay: GABAA receptor potency and efficacy (EC50, Emax), α4β3δ; assay type: cell-based
Sequence of α4β3δ Extra synaptic receptors (GABAA) (P48169 36-554): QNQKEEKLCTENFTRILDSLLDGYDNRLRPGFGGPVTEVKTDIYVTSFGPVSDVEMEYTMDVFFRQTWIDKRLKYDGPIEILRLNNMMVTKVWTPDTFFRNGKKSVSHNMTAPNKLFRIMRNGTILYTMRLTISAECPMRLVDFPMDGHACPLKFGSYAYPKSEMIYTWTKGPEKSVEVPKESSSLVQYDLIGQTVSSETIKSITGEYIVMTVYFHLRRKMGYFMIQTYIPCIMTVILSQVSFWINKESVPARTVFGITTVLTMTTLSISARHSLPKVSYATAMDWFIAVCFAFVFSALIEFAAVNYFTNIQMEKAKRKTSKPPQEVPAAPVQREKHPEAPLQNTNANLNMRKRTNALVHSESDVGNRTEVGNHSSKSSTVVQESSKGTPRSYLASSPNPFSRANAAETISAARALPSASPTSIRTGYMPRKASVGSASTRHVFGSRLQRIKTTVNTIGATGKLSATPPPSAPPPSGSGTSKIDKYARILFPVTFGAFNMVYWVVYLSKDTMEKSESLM
Sequence of α4β3δ Extra synaptic receptors (GABAA) (P28472 26-473): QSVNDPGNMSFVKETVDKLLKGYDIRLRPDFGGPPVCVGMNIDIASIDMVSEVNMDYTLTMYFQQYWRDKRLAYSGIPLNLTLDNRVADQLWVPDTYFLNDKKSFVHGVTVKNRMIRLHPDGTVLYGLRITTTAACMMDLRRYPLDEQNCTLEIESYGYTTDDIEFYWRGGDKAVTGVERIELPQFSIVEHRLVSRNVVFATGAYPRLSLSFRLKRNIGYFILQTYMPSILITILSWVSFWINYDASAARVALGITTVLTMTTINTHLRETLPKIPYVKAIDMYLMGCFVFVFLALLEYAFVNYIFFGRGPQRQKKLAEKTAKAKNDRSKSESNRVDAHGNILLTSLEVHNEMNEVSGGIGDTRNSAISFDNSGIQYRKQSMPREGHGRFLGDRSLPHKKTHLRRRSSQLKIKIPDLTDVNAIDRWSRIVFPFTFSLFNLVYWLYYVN
Sequence of α4β3δ Extra synaptic receptors (GABAA) (O14764 25-452 partner): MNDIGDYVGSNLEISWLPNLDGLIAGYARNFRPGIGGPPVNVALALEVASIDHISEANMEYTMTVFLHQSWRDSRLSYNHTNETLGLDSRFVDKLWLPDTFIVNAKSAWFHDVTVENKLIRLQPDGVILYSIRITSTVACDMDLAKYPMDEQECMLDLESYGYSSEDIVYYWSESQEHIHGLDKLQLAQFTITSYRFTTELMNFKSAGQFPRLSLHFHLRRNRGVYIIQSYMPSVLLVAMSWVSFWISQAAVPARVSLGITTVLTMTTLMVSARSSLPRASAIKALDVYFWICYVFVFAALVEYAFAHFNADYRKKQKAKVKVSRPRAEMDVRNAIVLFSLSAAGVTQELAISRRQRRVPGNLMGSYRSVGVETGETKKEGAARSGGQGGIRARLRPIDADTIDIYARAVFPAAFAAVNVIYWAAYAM

[9] = 1 mg/kg (minimal effective dose), male and female subjects
[10] = 3 mg/kg, male and female subjects
[11] = 10 mg/kg, male and female subjects

Q: With `C[C@@]1(O)CC[C@@]2(C)[C@@H](CC[C@@H]3[C@@H]2CC[C@]2(C)[C@@H](C(=O)Cn4cc(C#N)cn4)CC[C@@H]32)C1` [CV-10155, 1-[2-[(3R,5S,8R,9S,10S,13S,14S,17S)-3-hydroxy-3,10,13-trimethyl-1,2,4,5,6,7,8,9,11,12,14,15,16,17-tetradecahydrocyclopenta[a]phenanthren-17-yl]-2-oxoethyl]pyrazole-4-carbonitrile] as the compound, how does the “tolerability in rodent models” value (rodent models) read?
A: well tolerated

Q: What about the genetic toxicology findings [1] of the same compound?
A: no positive findings

Q: And the “activity at the kappa opioid receptor” value (kappa opioid receptor)?
A: activity

Q: And the “ratio of Cmax/trough on day 7” value ([2]; 60 mg daily in the evening in a fed state)?
A: 3.47

Q: And the “ratio of Cmax/trough on day 7” value ([2]; 60 mg daily in the morning in a fasted state)?
A: 6.09

Q: And the “difference in absorption, morning fasted vs evening fed” value ([2]; 60 mg oral once per day for seven days)?
A: no significant difference

Q: What about the “Ratio (Cmax/Cmin)” value ([2]; 60 mg, day 7 MAD, morning dosing) of the same compound?
A: 6.07

Q: And the AUC0-inf ([2]; plasma, oral, 60 mg)?
A: 2900 ng·h/mL

Q: What about the concentration at 7 day ([2]; plasma, oral, 60 mg) of the same compound?
A: 41.5 ng/mL

Q: And the elimination in urine [3]?
A: < 1 % of the dose

Q: And the “accumulation ratio based on AUC” value ([3]; once daily administration)?
A: approximately 2

Q: What about the “daily dose by which steady state was achieved” value ([3]; once daily administration, visual inspection of mean concentrations) of the same compound?
A: eighth

Q: What about the Tmax ([3]; plasma, Phase 1, after oral administration) of the same compound?
A: 3 to 4 h

Q: What about the half-life ([3]; plasma, oral, Phase 1, both after single and repeat administration, read-out: terminal half-life (converted)) of the same compound?
A: ~2400 min

Q: What about the serious adverse events (human subjects [4]) of the same compound?
A: minimal to no serious adverse events

Q: What about the severe adverse events (human subjects [4]) of the same compound?
A: minimal to no severe adverse events

Q: And the “activity at all 18 GABAA receptor channels” value [5]?
A: activity

Q: And the “dose producing an increase in non-REM sleep” value (rats; doses 1, 3, 6, 10 mg/kg)?
A: ≥ 3 mg/kg

Q: What about the target engagement (rats; within well-tolerated and efficacious dose ranges) of the same compound?
A: dose-dependent target engagement

Q: And the dose-limiting adverse event (human subjects [6])?
A: Ataxia

Q: And the “SAD MTD” value (human subjects [6]; single ascending dose)?
A: ETX-155 135 mg SAD MTD

Q: And the “adverse events observed at 200 mg” value (human subjects [6]; single oral dose 200 mg, fasted)?
A: ataxia, tremor and tachycardia

Q: What about the “most common adverse events” value (human subjects [6]; single oral dose, mild to moderate, only observed at the highest doses) of the same compound?
A: Dizziness and somnolence

Q: What about the dose-limiting adverse events (human subjects [6]; single oral dose, range of 5-135 mg) of the same compound?
A: No dose-limiting adverse events were observed

Q: What about the AUC0-inf [7, 9] of the same compound?
A: 508-1301

Q: And the Cmax [7, 9]?
A: 84.4-128

Q: And the “Oral BA” value [7, 9]?
A: 58.6-92.4

Q: And the Tmax [7, 9]?
A: 1.5-2^

Q: What about the ½ life [7, 9] of the same compound?
A: 3.66-6.82

Q: What about the “Oral BA” value ([7]; 2 mg/kg, only male subjects) of the same compound?
A: 47.2

Q: What about the Tmax ([7]; 2 mg/kg, only male subjects, in h) of the same compound?
A: 1.7

Q: And the Cmax ([7]; 2 mg/kg, only male subjects, in ng/mL)?
A: 224

Q: What about the AUC0-inf ([7]; 2 mg/kg, only male subjects, in ng·h/mL) of the same compound?
A: 1319

Q: And the AUC0-inf [7, 10]?
A: 1378-3899

Q: What about the Cmax [7, 10] of the same compound?
A: 270-440

Q: What about the “Oral BA” value [7, 10] of the same compound?
A: 53-92.3

Q: And the ½ life [7, 10]?
A: 2.84-4.96

Q: And the Tmax ([7]; 3 mg/kg, male and female subjects, in h)?
A: 1.25-2.50

Q: What about the “Oral BA” value ([7]; 5 mg/kg, only male subjects) of the same compound?
A: 58.1

Q: And the ½ life ([7]; 5 mg/kg, only male subjects)?
A: 4.19

Q: What about the Tmax ([7]; 5 mg/kg, only male subjects, in h) of the same compound?
A: 0.83

Q: What about the Cmax ([7]; 5 mg/kg, only male subjects, in ng/mL) of the same compound?
A: 499

Q: What about the AUC0-inf ([7]; 5 mg/kg, only male subjects, in ng·h/mL) of the same compound?
A: 2610

Q: And the AUC0-inf [7, 11]?
A: 6848-14667

Q: What about the “Oral BA” value [7, 11] of the same compound?
A: 79.7-100

Q: What about the ½ life [7, 11] of the same compound?
A: 3.23-4.80

Q: What about the Tmax ([7]; 10 mg/kg, male and female subjects, in h) of the same compound?
A: 1.25-2.25

Q: What about the Cmax ([7]; 10 mg/kg, male and female subjects, in ng/mL) of the same compound?
A: 1165

Q: And the “fold higher efficiency at extra synaptic vs. synaptic channels” value [8]?
A: 3 fold

Q: And the “preferential modulation of α4β3δ subtype compared to α1β2γ2 subtype” value ([8]; isomerically pure compositions)?
A: preferentially modulate
